Positions count from the first letter of the chain named. *1 amine or outer side, *2 acyl side, *3 side chain or, on linkers, in order; H or OH if unused. Where a SMILES comes first, the peptide text is derived from it. γGlu = O=C(O)[CH](CCC(=O)[*:2])N[*:1]
Assays:
human CaSR P39S mutant = target: T1, human CaSR P39S mutant (Homo sapiens, UniProt P41180, P39S); experiment: Calcium mobilization assay, CaSR P39S mutant; type: cell-based; conditions: for Response in calcium mobilization assay: in words
T1 construct: expressed in transfected cells; host or cells: PEAKrapid cells (ATCC), pcDNA 3.1, transient transfection
T1 sequence (P41180 20-1078 P39S): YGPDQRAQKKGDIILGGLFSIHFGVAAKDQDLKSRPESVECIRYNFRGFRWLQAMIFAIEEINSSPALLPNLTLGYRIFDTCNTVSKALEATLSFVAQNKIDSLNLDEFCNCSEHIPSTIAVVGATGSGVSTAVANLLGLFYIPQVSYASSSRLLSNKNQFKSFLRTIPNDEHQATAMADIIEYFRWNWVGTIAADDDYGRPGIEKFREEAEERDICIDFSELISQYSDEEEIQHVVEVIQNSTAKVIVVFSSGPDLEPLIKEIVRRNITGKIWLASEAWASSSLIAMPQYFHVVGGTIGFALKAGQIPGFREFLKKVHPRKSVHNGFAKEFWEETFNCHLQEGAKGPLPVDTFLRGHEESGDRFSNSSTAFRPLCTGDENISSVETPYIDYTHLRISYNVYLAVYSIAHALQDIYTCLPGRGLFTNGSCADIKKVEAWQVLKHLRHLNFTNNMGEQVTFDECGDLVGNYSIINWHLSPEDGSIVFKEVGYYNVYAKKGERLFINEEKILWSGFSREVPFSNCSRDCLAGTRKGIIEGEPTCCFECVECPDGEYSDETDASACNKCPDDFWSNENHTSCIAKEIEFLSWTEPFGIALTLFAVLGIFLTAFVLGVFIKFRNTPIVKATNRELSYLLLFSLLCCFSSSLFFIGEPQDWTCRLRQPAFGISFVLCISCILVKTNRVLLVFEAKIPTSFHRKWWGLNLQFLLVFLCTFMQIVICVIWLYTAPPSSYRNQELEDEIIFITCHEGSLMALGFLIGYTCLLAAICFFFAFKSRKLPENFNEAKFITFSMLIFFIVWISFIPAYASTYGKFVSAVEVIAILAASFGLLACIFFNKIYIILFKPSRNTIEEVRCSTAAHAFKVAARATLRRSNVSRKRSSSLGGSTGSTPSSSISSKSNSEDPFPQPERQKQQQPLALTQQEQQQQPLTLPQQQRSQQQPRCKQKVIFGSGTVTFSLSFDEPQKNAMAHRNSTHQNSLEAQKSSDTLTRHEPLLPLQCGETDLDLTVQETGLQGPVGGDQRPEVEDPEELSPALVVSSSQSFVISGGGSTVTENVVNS
Method: (§1) The CaSR receptor responsiveness was assessed by using PEAK^rapid cells (ATCC, Manassas, VA, USA) transiently transfected with the receptor DNA by the method reported by Kitajima et al.[6]. Briefly, human CaSR or its mutant cDNA with a signal sequence (MAFYSCCWVLLALTWHTSA) followed by FLAG-tag (DYKDDDDK) were inserted into pcDNA 3.1 expression vectors in Opti-MEM I medium (Thermo Fisher Scientific), mixed with FuGENE 6 (Roche), and poured onto PEAK^rapid cells grown at a submaximal concentration. After culturing for 24 h in 96-well plates, the cells were incubated with 5 µM Calcium-5 solution (Calcium-5 assay kit, Molecular Devices) for 45–60 min, and measurements were performed using a plate reader (FDSS/µCELL, Hamamatsu Photonics, Shizuoka, Japan) and its associated software. The activation of CaSR expressed in cells increases the intracellular Ca^2+ concentration, which is measured using a Ca^2+-sensitive dye. The binding of Ca^2+ to the Ca^2+-sensitive dye increases dye fluorescence, with excitation at 485 nm and emission at 525 nm. Test compounds were dissolved and administered in the assay buffer (146 mM NaCl, 1 mM MgSO4, 20 mM HEPES, 1 mM CaCl2, 2.5 mM probenecid, and 1.39 mM glucose, pH 7.4). Transiently transfected cells were challenged with compounds and compared with the vehicle alone and/or mock-transfected cells. The concentration dependence of the fluorescence intensity (influx of Ca^2+) was analyzed using the plate reader at 1 s intervals for 180 s. For the dose–response curve calculations, peak fluorescence responses after the addition of compounds were corrected for, normalized to the background fluorescence (ΔF/F = –F − F0)/F0), and baseline noise was subtracted. Dose–response curves were calculated by non-linear regression using GraphPad PRISM 8.0.

human CaSR (wild type) = target: T2, human CaSR (wild type) (Homo sapiens, UniProt P41180); experiment: Calcium mobilization assay, wild-type CaSR in PEAKrapid cells; type: cell-based; conditions: WT CaSR; for EC50: PEAKrapid cells, 1 mM CaCl2 in assay buffer, mean ± s.e.m., n = 3; for Response in calcium mobilization assay: in words
T2 construct: expressed in transfected cells; host or cells: PEAKrapid cells (ATCC), pcDNA 3.1, transient transfection
T2 sequence (P41180 20-1078): T1 sequence (P41180 20-1078 P39S) with S20P
Method: as §1

Response in calcium mobilization assay (human CaSR P39S mutant)	EC50 (human CaSR (wild type)) [µM]	Emax (% of wild-type values) (human CaSR P39S mutant)	EC50 (human CaSR P39S mutant; mean ± s.e.m., n = 3) [µM]	Response in calcium mobilization assay (human CaSR (wild type))	SMILES
–	190 ± 400	74.5 % of WT	7520 ± 230	–	[Ca+2].[Cl-].[Cl-] [CaCl2]
no response	10.71 ± 0.1	–	–	weak response	CC(C)[C@H](NC(=O)CC[C@H](N)C(=O)O)C(=O)O [γ-EV, γ-glutamyl-valine]
no response	3900 ± 1100	–	–	weak response	N[C@@H](Cc1ccc(O)cc1)C(=O)O [L-Tyr, L-tyrosine]

SMILES	Response in calcium mobilization assay (human CaSR P39S mutant)	EC50 (human CaSR (wild type)) [µM]	Emax (% of wild-type values) (human CaSR P39S mutant)	EC50 (human CaSR P39S mutant; mean ± s.e.m., n = 3) [µM]	Response in calcium mobilization assay (human CaSR (wild type))
CC(C)C(NC(=O)CCC(N)C(=O)O)C(=O)NCC(=O)O (stereo not drawn) [γ-EVG, γ-glutamyl-valyl-glycine] (γGlu-Val-Gly-OH; configuration not given here)	large decrease in the response	0.18 ± 0.1	–	–	–
